# Laboratory results as given in ChEMBL document CHEMBL4507292 (2021).
# What was measured:
# [1] = target: voltage-gated sodium channel, site 2 (Rattus norvegicus, UniProt F1LQQ7+O08562+O88420+O88457+P04774+P04775+P08104+P15389+P15390+Q62968); test: Inhibition of Sodium Channel, Site 2 at 10 µM in the Eurofins-Panlabs radioligand binding assay (Eurofins_assay_279510); format: protein assay; design: ligand concentration 5 nM, non-specific ligand with concentration 100 µM Veratridine, incubation time 60 min, incubation temperature 37 °C; conditions: male, Wistar, rat whole brain (except cerebellum) membranes, probe [3H] Batrachotoxinin, 5 nM, compound concentration 10 uM
# [2] = target: Sodium-dependent noradrenaline transporter (Homo sapiens, UniProt P23975)
# [3] = target: 5-hydroxytryptamine receptor 1B (Homo sapiens) (UniProt P28222); test: Inhibition of Serotonin (5-Hydroxytryptamine) 5-HT1B at 10 µM in the Eurofins-Panlabs radioligand binding assay (Eurofins_assay_271200); conditions: Compound concentration 10.0 uM
# [4] = target: Neurotensin receptor type 1 (Homo sapiens, UniProt P30989); test: Neurotensin NT1 Eurofins-Panlabs radioligand binding assay; design: ligand concentration 0.02 nM, non-specific ligand with concentration 1 µM Neurotensin, incubation time 45 min, incubation temperature 25 °C
# [5] = target: Beta-3 adrenergic receptor (Homo sapiens, UniProt P13945); test: Inhibition of Adrenergic beta3 at compound concentration of 10.0 uM in the Eurofins-Panlabs radioligand binding assay (Eurofins_assay_204200); design: ligand concentration 0.5 nM, non-specific ligand with concentration 1000 uM Alprenolol, incubation time 90 min, incubation temperature 25 C
# [6] = target: Glutamate NMDA receptor; GRIN1/GRIN2A (Homo sapiens) (UniProt Q05586+Q12879); test: NMDA-NR1a/NR2a Eurofins-Panlabs radioligand binding assay; format: protein-complex assay; conditions: Compound concentration 10.0 uM
# D(1A) dopamine receptor = D(1A) dopamine receptor (Homo sapiens, UniProt P21728); conditions: Compound concentration 10.0 uM
# Rattus norvegicus = species on record: Rattus norvegicus; conditions: Compound concentration 10.0 uM
# [7] = target: 5-hydroxytryptamine receptor 6 (Homo sapiens) (UniProt P50406); test: Inhibition of Serotonin (5-Hydroxytryptamine) 5-HT6 at 10 µM in the Eurofins-Panlabs radioligand binding assay (Eurofins_assay_272200)
# [8] = target: Prostaglandin D2 receptor (Homo sapiens) (UniProt Q13258); test: Prostanoid DP Eurofins-Panlabs radioligand binding assay; conditions: Compound concentration 10.0 uM
# [9] = target: Melanocortin receptor 3 (Homo sapiens) (UniProt P41968); test: Inhibition of Melanocortin MC3 at 10 µM in the Eurofins-Panlabs radioligand binding assay (Eurofins_assay_251300); design: ligand concentration 0.035 nM; conditions: Compound concentration 10.0 uM
# [10] = target: T1, 5-hydroxytryptamine receptor 2C (Homo sapiens) (UniProt P28335); conditions: Compound concentration 10.0 uM
# T1 sequence (whole entry): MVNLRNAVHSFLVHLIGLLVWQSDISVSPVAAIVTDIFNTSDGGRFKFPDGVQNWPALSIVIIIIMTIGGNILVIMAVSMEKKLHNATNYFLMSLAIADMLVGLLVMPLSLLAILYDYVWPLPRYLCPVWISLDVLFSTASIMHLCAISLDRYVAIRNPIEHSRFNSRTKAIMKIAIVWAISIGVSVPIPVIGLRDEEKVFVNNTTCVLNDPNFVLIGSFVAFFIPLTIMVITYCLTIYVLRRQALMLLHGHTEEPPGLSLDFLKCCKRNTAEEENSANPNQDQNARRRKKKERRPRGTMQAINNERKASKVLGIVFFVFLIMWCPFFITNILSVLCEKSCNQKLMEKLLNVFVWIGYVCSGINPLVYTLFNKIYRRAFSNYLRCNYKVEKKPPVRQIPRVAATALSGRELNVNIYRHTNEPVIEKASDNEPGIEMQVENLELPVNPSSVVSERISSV
# [11] = (§1) Cholecystokinin CCK2 (CCKB) Eurofins-Panlabs radioligand binding assay; design: species or system Homo sapiens; ligand concentration 0.072 nM, non-specific ligand with concentration 1 µM Sincalide, incubation time 3 h, incubation temperature 25 °C
# Homo sapiens [12] = species on record: Homo sapiens; test: as §1; design: ligand concentration 0.072 nM, non-specific ligand with concentration 1 µM Sincalide, incubation time 3 h, incubation temperature 25 °C
# [13] = target: Neutrophil elastase (Homo sapiens) (UniProt P08246); test: Peptidase, ELA2 (Neutrophil Elastase 2) Eurofins-Panlabs enzyme assay; conditions: Compound concentration 30.0 uM
# [14] = target: Neuropeptide Y receptor type 1 (Homo sapiens) (UniProt P25929); test: Inhibition of Neuropeptide Y Y1 at 10 µM in the Eurofins-Panlabs radioligand binding assay (Eurofins_assay_257010)
# [15] = target: Prostaglandin E2 receptor EP3 subtype (Homo sapiens, UniProt P43115); test: (§2) Prostanoid EP3 Eurofins-Panlabs radioligand binding assay; design: ligand concentration 0.5 nM, non-specific ligand with concentration 10 µM Prostaglandin EŽ2 (PGE2), incubation time 60 min, incubation temperature 25 °C
# [16] = target: T2, Prostaglandin E2 receptor EP3 subtype (Homo sapiens) (UniProt P43115); test: as §2; design: ligand concentration 0.5 nM, non-specific ligand with concentration 10 µM Prostaglandin EŽ2 (PGE2), incubation time 60 min, incubation temperature 25 °C
# T2 sequence (whole entry): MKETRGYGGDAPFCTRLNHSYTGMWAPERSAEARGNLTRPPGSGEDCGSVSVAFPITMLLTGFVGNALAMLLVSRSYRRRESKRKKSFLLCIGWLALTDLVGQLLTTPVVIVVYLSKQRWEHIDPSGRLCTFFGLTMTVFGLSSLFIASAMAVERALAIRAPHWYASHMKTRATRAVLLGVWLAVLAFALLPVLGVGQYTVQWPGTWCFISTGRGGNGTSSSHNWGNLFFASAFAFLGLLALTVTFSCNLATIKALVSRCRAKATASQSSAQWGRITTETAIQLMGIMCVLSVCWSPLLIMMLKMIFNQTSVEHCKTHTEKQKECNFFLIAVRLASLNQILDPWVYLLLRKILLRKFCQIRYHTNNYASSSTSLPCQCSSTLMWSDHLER
# [17] = target: Tyrosine 3-monooxygenase (Homo sapiens) (UniProt P07101); test: Tyrosine Hydroxylase Eurofins-Panlabs enzyme assay; design: substrate with concentration; conditions: Rattus norvegicus; Compound concentration 10.0 uM
# [18] = target: Vasoactive intestinal polypeptide receptor 1 (Homo sapiens) (UniProt P32241); test: Inhibition of Vasoactive Intestinal Peptide VIP1 at 10 µM in the Eurofins-Panlabs radioligand binding assay (Eurofins_assay_287010); conditions: Compound concentration 10.0 uM
# [19] = target: Adenosine receptor A2a (Homo sapiens) (UniProt P29274); conditions: Compound concentration 10.0 uM
# [20] = target: Melatonin receptor (Gallus gallus) (UniProt P49288+P51050+P49285); test: Melatonin MT, Non-Selective Eurofins-Panlabs radioligand binding assay; format: protein assay; conditions: Compound concentration 10.0 uM
# [21] = (§3) Protein Serine/Threonine Kinase, MAPK14 (p38α) Eurofins-Panlabs enzyme assay; design: species or system Homo sapiens; substrate with concentration 10 µg/mL Myelin Basic Protein (MBP), incubation time 60 min, incubation temperature 25 °C
# Homo sapiens [22] = species on record: Homo sapiens; test: as §3; design: substrate with concentration 10 µg/mL Myelin Basic Protein (MBP), incubation time 60 min, incubation temperature 25 °C
# [23] = target: Cholecystokinin receptor type A (Homo sapiens) (UniProt P32238); test: Inhibition of Cholecystokinin CCK1 (CCKA) at 10 µM in the Eurofins-Panlabs radioligand binding assay (Eurofins_assay_218020)
# Insulin receptor = Insulin receptor (Homo sapiens, UniProt P06213); test: Protein Tyrosine Kinase, Insulin Receptor Eurofins-Panlabs enzyme assay; design: substrate with concentration 10 µg/mL […], incubation time 60 min, incubation temperature 25 °C
# Sequence of Insulin receptor (P06213 28-758 limits assumed): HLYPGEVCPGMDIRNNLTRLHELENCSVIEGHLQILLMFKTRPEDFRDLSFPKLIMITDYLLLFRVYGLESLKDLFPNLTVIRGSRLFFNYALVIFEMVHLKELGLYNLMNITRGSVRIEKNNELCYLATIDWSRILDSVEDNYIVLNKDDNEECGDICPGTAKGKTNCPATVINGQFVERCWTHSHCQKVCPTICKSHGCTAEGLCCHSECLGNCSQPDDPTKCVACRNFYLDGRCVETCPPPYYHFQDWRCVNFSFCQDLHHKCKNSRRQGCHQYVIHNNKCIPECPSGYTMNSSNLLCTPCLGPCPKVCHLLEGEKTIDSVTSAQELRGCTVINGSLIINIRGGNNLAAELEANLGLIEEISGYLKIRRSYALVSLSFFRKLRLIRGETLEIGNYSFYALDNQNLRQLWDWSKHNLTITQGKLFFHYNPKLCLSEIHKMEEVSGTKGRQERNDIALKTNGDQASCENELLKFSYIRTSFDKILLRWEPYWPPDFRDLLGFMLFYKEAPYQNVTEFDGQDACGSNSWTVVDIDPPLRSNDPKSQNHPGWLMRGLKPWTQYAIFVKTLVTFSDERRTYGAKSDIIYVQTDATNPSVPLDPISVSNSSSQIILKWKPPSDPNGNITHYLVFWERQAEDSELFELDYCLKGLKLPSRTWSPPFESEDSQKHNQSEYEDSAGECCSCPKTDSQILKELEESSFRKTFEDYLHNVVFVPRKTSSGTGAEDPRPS
# Sequence of Insulin receptor (P06213 763-1382 limits assumed): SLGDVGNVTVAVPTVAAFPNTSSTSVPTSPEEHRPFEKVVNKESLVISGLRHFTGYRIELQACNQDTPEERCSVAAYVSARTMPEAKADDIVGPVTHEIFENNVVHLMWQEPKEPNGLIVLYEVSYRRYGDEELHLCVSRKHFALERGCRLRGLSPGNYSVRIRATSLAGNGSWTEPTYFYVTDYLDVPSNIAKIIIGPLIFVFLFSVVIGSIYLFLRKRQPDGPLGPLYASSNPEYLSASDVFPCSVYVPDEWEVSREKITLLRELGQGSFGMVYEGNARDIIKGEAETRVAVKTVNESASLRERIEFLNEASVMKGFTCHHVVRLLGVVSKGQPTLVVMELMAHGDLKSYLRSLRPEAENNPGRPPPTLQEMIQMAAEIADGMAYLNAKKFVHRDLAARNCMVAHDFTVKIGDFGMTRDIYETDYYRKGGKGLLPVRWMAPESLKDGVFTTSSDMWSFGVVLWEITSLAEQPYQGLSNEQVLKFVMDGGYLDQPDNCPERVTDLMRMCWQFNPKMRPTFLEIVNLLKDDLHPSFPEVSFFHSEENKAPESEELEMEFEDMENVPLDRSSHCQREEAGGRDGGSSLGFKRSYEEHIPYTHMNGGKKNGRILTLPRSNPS
# Sequence of Neurotensin receptor type 1 (P30989 whole entry): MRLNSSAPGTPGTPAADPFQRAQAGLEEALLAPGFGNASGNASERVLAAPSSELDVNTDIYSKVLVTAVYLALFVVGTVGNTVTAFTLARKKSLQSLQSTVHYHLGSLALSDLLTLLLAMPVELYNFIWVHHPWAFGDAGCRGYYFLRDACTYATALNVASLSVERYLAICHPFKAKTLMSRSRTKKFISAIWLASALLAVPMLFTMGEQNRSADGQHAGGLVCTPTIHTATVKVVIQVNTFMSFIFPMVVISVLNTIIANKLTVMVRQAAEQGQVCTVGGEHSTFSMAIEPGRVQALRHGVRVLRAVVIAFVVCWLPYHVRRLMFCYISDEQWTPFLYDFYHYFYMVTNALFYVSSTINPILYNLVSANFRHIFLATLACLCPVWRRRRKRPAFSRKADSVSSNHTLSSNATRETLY
# Sequence of Sodium-dependent noradrenaline transporter (P23975 whole entry): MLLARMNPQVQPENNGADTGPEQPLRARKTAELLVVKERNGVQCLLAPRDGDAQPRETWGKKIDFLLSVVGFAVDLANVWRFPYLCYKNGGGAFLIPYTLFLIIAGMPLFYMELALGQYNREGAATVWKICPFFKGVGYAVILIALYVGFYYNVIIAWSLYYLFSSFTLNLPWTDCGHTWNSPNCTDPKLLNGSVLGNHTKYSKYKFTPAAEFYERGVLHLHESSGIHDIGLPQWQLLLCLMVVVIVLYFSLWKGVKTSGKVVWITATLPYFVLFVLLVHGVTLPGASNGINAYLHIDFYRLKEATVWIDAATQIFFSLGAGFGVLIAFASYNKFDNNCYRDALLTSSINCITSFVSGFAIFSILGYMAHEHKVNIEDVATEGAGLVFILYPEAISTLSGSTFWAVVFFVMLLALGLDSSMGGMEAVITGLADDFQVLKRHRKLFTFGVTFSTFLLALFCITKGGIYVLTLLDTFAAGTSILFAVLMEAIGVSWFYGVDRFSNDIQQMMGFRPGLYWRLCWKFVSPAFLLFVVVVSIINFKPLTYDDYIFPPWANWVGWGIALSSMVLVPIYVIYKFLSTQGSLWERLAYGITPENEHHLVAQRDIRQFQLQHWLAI
# Sequence of Beta-3 adrenergic receptor (P13945 whole entry): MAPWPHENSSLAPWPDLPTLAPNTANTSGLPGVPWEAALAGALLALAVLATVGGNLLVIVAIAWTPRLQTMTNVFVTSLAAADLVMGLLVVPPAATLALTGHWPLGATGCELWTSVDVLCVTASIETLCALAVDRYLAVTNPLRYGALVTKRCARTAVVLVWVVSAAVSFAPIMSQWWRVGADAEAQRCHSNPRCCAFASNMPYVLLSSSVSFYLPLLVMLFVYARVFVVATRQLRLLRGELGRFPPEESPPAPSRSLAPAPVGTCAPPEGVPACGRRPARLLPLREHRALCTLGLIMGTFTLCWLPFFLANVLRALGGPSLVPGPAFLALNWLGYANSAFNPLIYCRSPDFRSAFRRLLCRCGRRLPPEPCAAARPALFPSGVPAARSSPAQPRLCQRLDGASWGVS
# Sequence of Tyrosine 3-monooxygenase (Homo sapiens) (P07101 whole entry): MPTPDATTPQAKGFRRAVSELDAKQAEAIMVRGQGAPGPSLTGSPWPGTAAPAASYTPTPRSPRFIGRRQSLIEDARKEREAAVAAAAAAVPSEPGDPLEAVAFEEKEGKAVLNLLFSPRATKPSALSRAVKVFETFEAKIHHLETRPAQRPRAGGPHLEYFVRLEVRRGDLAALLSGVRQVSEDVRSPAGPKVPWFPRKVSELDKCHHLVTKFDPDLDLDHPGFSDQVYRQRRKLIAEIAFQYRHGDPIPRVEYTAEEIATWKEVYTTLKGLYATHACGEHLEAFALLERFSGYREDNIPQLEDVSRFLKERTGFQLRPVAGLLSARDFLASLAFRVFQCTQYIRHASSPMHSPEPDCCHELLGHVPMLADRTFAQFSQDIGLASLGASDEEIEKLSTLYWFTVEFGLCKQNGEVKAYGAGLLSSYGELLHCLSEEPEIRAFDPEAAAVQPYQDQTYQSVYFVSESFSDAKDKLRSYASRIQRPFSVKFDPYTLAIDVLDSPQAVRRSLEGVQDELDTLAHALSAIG
# Sequence of Melanocortin receptor 3 (Homo sapiens) (P41968 whole entry): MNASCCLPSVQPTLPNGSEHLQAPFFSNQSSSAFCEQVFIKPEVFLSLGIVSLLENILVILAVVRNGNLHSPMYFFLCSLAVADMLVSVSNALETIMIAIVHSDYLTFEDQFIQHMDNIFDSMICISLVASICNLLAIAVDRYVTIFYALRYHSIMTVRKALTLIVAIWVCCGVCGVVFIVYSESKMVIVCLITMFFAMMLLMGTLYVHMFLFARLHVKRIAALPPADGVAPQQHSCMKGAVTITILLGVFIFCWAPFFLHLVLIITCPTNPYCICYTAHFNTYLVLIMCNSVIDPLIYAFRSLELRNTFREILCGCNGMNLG
# Sequence of Neuropeptide Y receptor type 1 (Homo sapiens) (P25929 whole entry): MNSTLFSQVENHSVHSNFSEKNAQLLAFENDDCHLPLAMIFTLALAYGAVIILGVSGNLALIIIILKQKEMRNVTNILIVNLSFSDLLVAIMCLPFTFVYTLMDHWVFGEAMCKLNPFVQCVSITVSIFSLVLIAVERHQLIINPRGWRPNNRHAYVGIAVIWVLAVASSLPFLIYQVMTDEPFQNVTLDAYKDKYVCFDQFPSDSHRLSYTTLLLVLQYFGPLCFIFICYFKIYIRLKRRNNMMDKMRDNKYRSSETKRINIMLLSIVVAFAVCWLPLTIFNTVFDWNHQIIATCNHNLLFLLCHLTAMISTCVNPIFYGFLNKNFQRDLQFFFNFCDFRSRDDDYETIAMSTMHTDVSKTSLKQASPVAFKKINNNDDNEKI
# Sequence of Prostaglandin D2 receptor (Homo sapiens) (Q13258 whole entry): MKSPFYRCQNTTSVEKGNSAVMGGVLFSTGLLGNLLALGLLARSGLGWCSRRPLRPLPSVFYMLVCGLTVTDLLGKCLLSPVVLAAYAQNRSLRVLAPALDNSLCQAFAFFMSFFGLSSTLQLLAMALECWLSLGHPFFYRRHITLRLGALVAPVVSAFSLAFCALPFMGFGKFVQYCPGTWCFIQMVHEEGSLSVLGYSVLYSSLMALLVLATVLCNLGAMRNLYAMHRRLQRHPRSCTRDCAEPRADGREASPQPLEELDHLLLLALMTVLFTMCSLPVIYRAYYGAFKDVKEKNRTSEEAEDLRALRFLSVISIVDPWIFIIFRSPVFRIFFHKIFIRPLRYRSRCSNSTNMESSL
# Sequence of D(1A) dopamine receptor (P21728 whole entry): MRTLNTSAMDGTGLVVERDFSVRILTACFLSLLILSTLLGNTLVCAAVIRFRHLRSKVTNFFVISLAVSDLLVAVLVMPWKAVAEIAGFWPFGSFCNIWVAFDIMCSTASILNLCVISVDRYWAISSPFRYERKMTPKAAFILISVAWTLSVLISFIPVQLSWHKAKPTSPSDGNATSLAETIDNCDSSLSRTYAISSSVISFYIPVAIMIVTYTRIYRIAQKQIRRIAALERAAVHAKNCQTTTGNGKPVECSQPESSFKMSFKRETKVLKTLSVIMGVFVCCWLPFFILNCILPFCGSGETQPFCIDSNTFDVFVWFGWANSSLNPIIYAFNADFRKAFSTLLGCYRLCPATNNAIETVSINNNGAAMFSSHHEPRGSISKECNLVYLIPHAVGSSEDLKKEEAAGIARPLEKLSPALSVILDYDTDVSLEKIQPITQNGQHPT
smiles,measurement,setting,value
O=C(O)c1cc(-c2ccc(C3CCNCC3)cc2)c2ccc(-c3ccc(C(F)(F)F)cc3)cc2c1 [PPTN],"inhibition at 60 min, 10 µM",[1],-10% (not active)
same,inhibition,[2]; Compound concentration 0.01 uM,6%
same,inhibition,[2]; Compound concentration 0.1 uM,-2%
same,inhibition,[2]; Compound concentration 1.0 uM,20%
same,inhibition,[2]; Compound concentration 10.0 uM,78%
same,inhibition,[3],-4%
same,IC50,[4],8.66 µM
same,Ki,[4],6.97 µM
same,inhibition,[4]; Compound concentration 0.01 uM,11%
same,inhibition,[4]; Compound concentration 0.1 uM,10%
same,inhibition,[4]; Compound concentration 1.0 uM,-9%
same,inhibition,[4]; Compound concentration 10.0 uM,69%
same,IC50,[5],9.61 µM
same,Ki,[5],7.2 µM
same,inhibition,[6],12%
same,inhibition,D(1A) dopamine receptor,22%
same,inhibition,Rattus norvegicus,3%
same,inhibition,[7],7%
same,inhibition,[8],12%
same,inhibition,[9],34%
same,inhibition,[10],20%
same,IC50,[11],10 µM
same,inhibition,Homo sapiens [12]; Compound concentration 0.01 uM,3%
same,inhibition,Homo sapiens [12]; Compound concentration 0.1 uM,-1%
same,inhibition,Homo sapiens [12]; Compound concentration 1.0 uM,0%
same,inhibition,Homo sapiens [12]; Compound concentration 10.0 uM,48%
same,inhibition,[13],-4%
same,inhibition,[14],2%
same,IC50,[15],9.27 µM
same,inhibition,[16]; Compound concentration 0.01 uM,11%
same,inhibition,[16]; Compound concentration 0.1 uM,14%
same,inhibition,[16]; Compound concentration 1.0 uM,4%
same,inhibition,[16]; Compound concentration 10.0 uM,53%
same,inhibition,[17],-3%
same,inhibition,[18],3%
same,inhibition,[19],38%
same,inhibition,[20],-7%
same,IC50,[21],0.00294 µM
same,inhibition,Homo sapiens [22]; Compound concentration 0.01 uM,9%
same,inhibition,Homo sapiens [22]; Compound concentration 0.1 uM,0%
same,inhibition,Homo sapiens [22]; Compound concentration 1.0 uM,-7%
same,inhibition,[23],10%
same,IC50,Insulin receptor,4.31 µM
same,inhibition,Insulin receptor; Compound concentration 0.01 uM,1%
same,inhibition,Insulin receptor; Compound concentration 0.1 uM,-10%
same,inhibition,Insulin receptor; Compound concentration 1.0 uM,14%
same,inhibition,Insulin receptor; Compound concentration 10.0 uM,75%
